In assay [1] the test system is AmGSTF1. Briefly: CDNB assay: inhibition of AmGSTF1-catalysed glutathionylation of CDNB. The class given is biochemical, Alopecurus myosuroides. The conditions noted are these: for CDNB Assay % Inhibition: three replicate measurements.
In assay [2] the test system is AmGSTF1. Briefly: Thermal shift assay. The class given is binding, Alopecurus myosuroides. The conditions noted are these: difference in melting temperature compared to no ligand.

As to `COc1cc(OC)c2c(=O)cc(C(=O)Nc3ccccc3)oc2c1` [16a], the entries for the “CDNB Assay % Inhibition” value in assay [1] (10 µM compound) and in assay [1] (100 µM compound) were 26% and 49%, respectively. Further, the “Thermal Shift Assay ∆Tm” value in assay [2] (1 µM) was 0.17; in assay [2] (10 µM), 0.03; in assay [2] (100 µM), 0.03.

Turning to `COc1cc(NC(=O)c2cc(=O)c3c(OC)cc(OC)cc3o2)cc(OC)c1` [16b], the “CDNB Assay % Inhibition” value in assay [1] (10 µM compound) is on record as 19%; in assay [1] (100 µM compound), 56%. Besides, the “Thermal Shift Assay ∆Tm” value was 0.20 in assay [2] (1 µM), 0.50 in assay [2] (10 µM) and 0.13 in assay [2] (100 µM).

For the molecule `COc1cc(OC)c2c(=O)cc(C(=O)Nc3ccc(C)cc3)oc2c1` [16c], the “CDNB Assay % Inhibition” value is recorded as 33% in assay [1] (10 µM compound) and 64% in assay [1] (100 µM compound). Further, the “Thermal Shift Assay ∆Tm” value in assay [2] (1 µM) is 0.20; in assay [2] (10 µM), 0.10; in assay [2] (100 µM), 0.33.

On to `COc1cc(OC)c2c(=O)cc(N3CCN(C)CC3)oc2c1` [17a], for which the “CDNB Assay % Inhibition” value in assay [1] (100 µM compound) came to 16%. Moreover, the “Thermal Shift Assay ∆Tm” value is recorded as 0 in assay [2] (1 µM), -0.03 in assay [2] (10 µM) and 0.20 in assay [2] (100 µM).

Take `COc1cc(OC)c2c(=O)cc(N3CCOCC3)oc2c1` [17b]: the “CDNB Assay % Inhibition” value in assay [1] (10 µM compound) was found to be 0%; in assay [1] (100 µM compound) it was 37%. Also, the “Thermal Shift Assay ∆Tm” value in assay [2] (1 µM) is recorded as 0.06; in assay [2] (10 µM) it was 0.23; in assay [2] (100 µM), 0.20.

Turning to `COc1cc(OC)c2c(=O)cc(N3CCCCC3)oc2c1` [17c], the entries for the “CDNB Assay % Inhibition” value in assay [1] (10 µM compound) and in assay [1] (100 µM compound) were 12% and 67%, respectively. In addition, the figures for the “Thermal Shift Assay ∆Tm” value in assay [2] (1 µM), in assay [2] (10 µM) and in assay [2] (100 µM) were 0.23, 0.13 and 0.30, respectively.

On to `COc1cc(OC)c2c(=O)cc(NCCCO)oc2c1` [17d], for which the “CDNB Assay % Inhibition” value in assay [1] (100 µM compound) is recorded as 12%. In addition, the entries for the “Thermal Shift Assay ∆Tm” value in assay [2] (1 µM), in assay [2] (10 µM) and in assay [2] (100 µM) were 0.23, 0.17 and 0.07, respectively.

For `COc1cc(OC)c2c(=O)cc(-c3ccccc3)oc2c1` [18a], the “CDNB Assay % Inhibition” value in assay [1] (10 µM compound) was 20%; in assay [1] (100 µM compound) it was 70%. Further, the results for the “Thermal Shift Assay ∆Tm” value in assay [2] (1 µM), in assay [2] (10 µM) and in assay [2] (100 µM) were 0.23, 0.33 and 0.3, respectively.

With `COc1cc(OC)c2c(=O)cc(-c3ccc(F)cc3)oc2c1` [18b], the “CDNB Assay % Inhibition” value in assay [1] (10 µM compound) was 23%; in assay [1] (100 µM compound), 78%. For the same molecule, the entries for the “Thermal Shift Assay ∆Tm” value in assay [2] (1 µM), in assay [2] (10 µM) and in assay [2] (100 µM) were 0.17, 0.33 and 0.27, respectively.

In the case of `COc1ccc(-c2cc(=O)c3c(OC)cc(OC)cc3o2)cc1` [18c], the “CDNB Assay % Inhibition” value turned out to be 15% in assay [1] (10 µM compound) and 100% in assay [1] (100 µM compound). In addition, the entries for the “Thermal Shift Assay ∆Tm” value in assay [2] (1 µM), in assay [2] (10 µM) and in assay [2] (100 µM) were 0.23, 0.17 and 0.70, respectively.

For the molecule `COc1cc(OC)c2c(=O)cc(-c3cccc(-c4ccccc4)c3)oc2c1` [18d], the “CDNB Assay % Inhibition” value in assay [1] (10 µM compound) was found to be 12%; in assay [1] (100 µM compound), 87%. The “Thermal Shift Assay ∆Tm” value in assay [2] (1 µM) is on record as 0.13; in assay [2] (10 µM), 0.13; in assay [2] (100 µM) it was -0.1.

For `CCc1ccc(-c2cc(=O)c3c(OC)cc(OC)cc3o2)cc1` [18e], the “CDNB Assay % Inhibition” value came to 11% in assay [1] (10 µM compound) and 80% in assay [1] (100 µM compound). Moreover, the “Thermal Shift Assay ∆Tm” value in assay [2] (10 µM) worked out at 0.10; in assay [2] (100 µM), 0.

For the molecule `COc1cccc(-c2cc(=O)c3c(OC)cc(OC)cc3o2)c1` [18f], the “CDNB Assay % Inhibition” value in assay [1] (10 µM compound) turned out to be 15%; in assay [1] (100 µM compound), 79%. In addition, the “Thermal Shift Assay ∆Tm” value was 0.33 in assay [2] (1 µM), 0.2 in assay [2] (10 µM) and -0.17 in assay [2] (100 µM).

With `O=c1c(-c2ccc(O)cc2)coc2cc(O)cc(O)c12` [compound 5, reference compound], the “CDNB Assay % Inhibition” value in assay [1] (100 µM compound) is 47%.

Take `COc1ccc(-c2coc3cc(O)ccc3c2=O)cc1` [compound 6, reference compound]: in assay [1] (100 µM compound), the “CDNB Assay % Inhibition” value came out at 41%.

`O=C1c2c(O)cc(O)cc2O[C@H](c2ccc(O)c(O)c2)[C@H]1O` [compound 8, reference compound]: the “CDNB Assay % Inhibition” value in assay [1] (100 µM compound) was 18%.

Turning to `Oc1cc(O)c2c(c1)OC(c1ccc(O)c(O)c1)C(O)C2` (stereo not shown) [compound 10, catechin, reference compound], in assay [1], the “Inhibitory activity toward AmGSTF1 in the CDNB assay (in words)” value is reported as “no inhibition”. Moreover, the “CDNB Assay % Inhibition” value in assay [1] (100 µM compound) came to 0%.

Regarding `Cc1cc(=O)c2c(O)cc(O)cc2o1` [compound 12], the “Inhibitory activity toward AmGSTF1 in the CDNB assay (in words)” value in assay [1] is “reduced inhibitory activity”. For the same molecule, the “CDNB Assay % Inhibition” value in assay [1] (100 µM compound) is given as 63%.

For the molecule `O=C(Oc1cc(O)c2c(=O)cc(-c3ccccc3)oc2c1)c1ccccc1` [compound 27], the “CDNB Assay % Inhibition” value in assay [1] (100 µM compound) was determined as 4%.

With `CC(=O)Oc1cc(O)c2c(=O)cc(-c3ccccc3)oc2c1` [compound 28], in assay [1] (100 µM compound), the “CDNB Assay % Inhibition” value was found to be 10%.

In the case of `CCCCCC(=O)Oc1cc(O)c2c(=O)cc(-c3ccccc3)oc2c1` [compound 29], the “CDNB Assay % Inhibition” value in assay [1] (100 µM compound) was 6%.

In the case of `O=c1cc(-c2ccccc2)oc2cc(OCc3ccccc3)cc(O)c12` [compound 30], the “CDNB Assay % Inhibition” value in assay [1] (100 µM compound) is 53%.

Regarding `O=c1cc(-c2ccccc2)oc2cc(OCC3CC3)cc(O)c12` [compound 31], the “CDNB Assay % Inhibition” value in assay [1] (100 µM compound) is recorded as 76%.

Turning to `O=c1cc(-c2ccccc2)oc2cc(OCC3CCCC3)cc(O)c12` [compound 32], the “CDNB Assay % Inhibition” value in assay [1] (100 µM compound) is 80%.

In the case of `CCCCCOc1cc(O)c2c(=O)cc(-c3ccccc3)oc2c1` [compound 33], the “CDNB Assay % Inhibition” value in assay [1] (100 µM compound) was found to be 87%.

As to `O=c1cc(-c2ccccc2)oc2cc(OCC3CCCCO3)cc(O)c12` (stereo not shown) [compound 34], the “CDNB Assay % Inhibition” value in assay [1] (100 µM compound) was determined as 28%.

As for `O=c1cc(-c2ccccc2)oc2cc(OCc3cccnc3)cc(O)c12` [compound 35], in assay [1] (100 µM compound), the “CDNB Assay % Inhibition” value is listed as 87%.

Turning to `COc1ccc(CNc2cc(O)c3c(=O)cc(-c4ccccc4)oc3c2)cc1` [compound 36], the “CDNB Assay % Inhibition” value in assay [1] (100 µM compound) is listed as 45%.

As for `O=c1cc(-c2ccccc2)oc2cc(N3CCCC3)cc(O)c12` [compound 37], in assay [1] (100 µM compound), the “CDNB Assay % Inhibition” value amounted to 46%.

Consider `O=c1cc(-c2ccccc2)oc2cc(N3CCCCC3)cc(O)c12` [compound 38], for which the “CDNB Assay % Inhibition” value in assay [1] (100 µM compound) is on record as 88%.

As to `O=c1cc(-c2ccccc2)oc2cc(N3CCOCC3)cc(O)c12` [compound 39], the “CDNB Assay % Inhibition” value came out at 56% in assay [1] (10 µM compound) and 100% in assay [1] (100 µM compound).

As for `COc1cc(OCC(=O)O)c2c(=O)cc(-c3ccccc3)oc2c1` [compound 40], in assay [1] (1 µM compound), the “CDNB Assay % Inhibition” value is reported as 23%.

In the case of `COc1cc(OC(C(=O)O)C(C)C)c2c(=O)cc(-c3ccccc3)oc2c1` (stereo not shown) [compound 47], the “CDNB Assay % Inhibition” value in assay [1] (1 µM compound) is given as 7%.

In the case of `COc1cc(OC(C(=O)O)c2ccccc2)c2c(=O)cc(-c3ccccc3)oc2c1` (stereo not shown) [compound 48], in assay [1] (1 µM compound), the “CDNB Assay % Inhibition” value was determined as 16%.

For `COc1cc(OC(C(=O)O)c2ccc(Cl)cc2)c2c(=O)cc(-c3ccccc3)oc2c1` (stereo not shown) [compound 49], the “CDNB Assay % Inhibition” value in assay [1] (1 µM compound) stood at 27%.

On to `COc1cc(OC(Cc2ccccc2)C(=O)O)c2c(=O)cc(-c3ccccc3)oc2c1` (stereo not shown) [compound 50], for which the “CDNB Assay % Inhibition” value in assay [1] (1 µM compound) stood at 8%.

The record behind these values is article PMC8564858, “Flavonoid-based inhibitors of the Phi-class glutathione transferase from black-grass to combat multiple herbicide resistance” (Organic & Biomolecular Chemistry, 2021).
